Measurements from ChEMBL document CHEMBL2177079, “Free-Wilson and structural approaches to co-optimizing human and rodent isoform potency for 11β-hydroxysteroid dehydrogenase type 1 (11β-HSD1) inhibitors” (J Med Chem, 2012).
Active and inactive are the calls of the source. No cut-off for these calls is given here.

Columns and labels:
[1] = AUC in male beagle dog at 1.2 umol/kg, po; type: ADME, organism-based, Canis lupus familiaris; conditions: plasma
[2] = Clearance in male beagle dog at 0.6 umol/kg, iv; type: ADME, organism-based, Canis lupus familiaris; conditions: in vivo
[3] = Intrinsic clearance in male beagle dog hepatocytes measured per 10^6 cells; type: ADME, cell-based, Canis lupus familiaris, Hepatocyte; conditions: read-out: CLH
[4] = tested on: Mus musculus; assay: Reduction in fasting plasma glucose levels in obese mouse at 300 mg/kg/day, po; type: functional, organism-based
[5] = target: T1, 11-beta-hydroxysteroid dehydrogenase 1 (Homo sapiens, UniProt P28845); assay: Inhibition of human 11beta-HSD1 by HPLC assay
[6] = Intrinsic clearance in Han Wistar rat hepatocytes measured per 10^6 cells; type: ADME, cell-based, Hepatocyte; conditions: read-out: CLH
[7] = tested on: Mus musculus; assay: Reduction in body weight in obese mouse at 300 mg/kg/day, po; type: functional, organism-based
[8] = Volume of distribution at steady state in female beagle dog at 0.6 umol/kg, iv; type: ADME, organism-based, Canis lupus familiaris; conditions: in vivo, read-out: Vdss
[9] = tested on: Mus musculus; assay: Reduction in fasting plasma glucose levels in obese mouse at 50 mg/kg/day, po; type: functional, organism-based
[10] = Intrinsic clearance in mouse hepatocytes measured per 10^6 cells; type: ADME, cell-based, Hepatocyte; conditions: read-out: CLH
[11] = AUC in female beagle dog at 1.2 umol/kg, po; type: ADME, organism-based, Canis lupus familiaris; conditions: plasma
[12] = AUC in mouse at 11.7 umol/kg, po; type: ADME, organism-based, Plasma; conditions: whole blood
[13] = tested on: Mus musculus; assay: Reduction in body weight in obese mouse at 50 mg/kg/day, po; type: functional, organism-based
[14] = target: Corticosteroid 11-beta-dehydrogenase isozyme 1 (Mus musculus) (UniProt P50172); assay: Inhibition of 11beta-HSD1 in po dosed mouse liver assessed as target engagement; set-up: scale not given: the % may be the effect or the level left
[15] = Oral bioavailability in mouse at 11.7 umol/kg; type: ADME, organism-based; conditions: in vivo
[16] = Half life in male beagle dog at 0.6 umol/kg, iv; type: ADME, organism-based, Canis lupus familiaris; conditions: in vivo
[17] = Oral bioavailability in Han Wistar rat at 7 umol/kg; type: ADME, organism-based; conditions: in vivo
[18] = Fraction unbound in mouse plasma; type: ADME, cell-free
[19] = AUC in Han Wistar rat at 7 umol/kg, po; type: ADME, organism-based, Plasma; conditions: whole blood
[20] = Clearance in Han Wistar rat at 4.7 umol/kg, iv; type: ADME, organism-based; conditions: in vivo
[21] = Fraction unbound in female beagle dog plasma; type: ADME, cell-free, Canis lupus familiaris
[22] = Clearance in female beagle dog at 0.6 umol/kg, iv; type: ADME, organism-based, Canis lupus familiaris; conditions: in vivo
[23] = (§1) Oral bioavailability in Han Wistar rat at 7.4 to 14.7 umol/kg; type: ADME, organism-based; conditions: Han Wistar, in vivo
[24] = Fraction unbound in male beagle dog plasma; type: ADME, cell-free, Canis lupus familiaris
[25] = target: T1, 11-beta-hydroxysteroid dehydrogenase 1; assay: Inhibition of human 11beta-HSD1 by HTRF assay
[26] = Intrinsic clearance in female beagle dog hepatocytes measured per 10^6 cells; type: ADME, cell-based, Canis lupus familiaris, Hepatocyte; conditions: read-out: CLH
[27] = Intrinsic clearance in human hepatocytes measured per 10^6 cells; type: ADME, cell-based, Hepatocyte; conditions: read-out: CLH
[28] = tested on: Mus musculus; assay: Inhibition of 11beta-HSD1 in po dosed C57 mouse epididymal adipose tissue assessed as conversion of [3H]cortisone to [3H]cortisol; type: functional, organism-based
[29] = Volume of distribution at steady state in Han Wistar rat at 4.7 umol/kg, iv; type: ADME, organism-based; conditions: in vivo, read-out: Vdss
[30] = Fraction unbound in Han Wistar rat plasma; type: ADME, cell-free
[31] = target: 11-beta-hydroxysteroid dehydrogenase 1 (Mus musculus, UniProt P50172); assay: Inhibition of mouse 11beta-HSD1 by HTRF assay
[32] = Half life in female beagle dog at 0.6 umol/kg, iv; type: ADME, organism-based, Canis lupus familiaris; conditions: in vivo
[33] = Oral bioavailability in male beagle dog at 1.2 umol/kg; type: ADME, organism-based, Canis lupus familiaris; conditions: in vivo
[34] = target: T2, 17-beta-hydroxysteroid dehydrogenase type 1 (Homo sapiens, UniProt P14061); assay: Inhibition of human 17beta-HSD1 by HPLC assay
T2 sequence (P14061 whole entry): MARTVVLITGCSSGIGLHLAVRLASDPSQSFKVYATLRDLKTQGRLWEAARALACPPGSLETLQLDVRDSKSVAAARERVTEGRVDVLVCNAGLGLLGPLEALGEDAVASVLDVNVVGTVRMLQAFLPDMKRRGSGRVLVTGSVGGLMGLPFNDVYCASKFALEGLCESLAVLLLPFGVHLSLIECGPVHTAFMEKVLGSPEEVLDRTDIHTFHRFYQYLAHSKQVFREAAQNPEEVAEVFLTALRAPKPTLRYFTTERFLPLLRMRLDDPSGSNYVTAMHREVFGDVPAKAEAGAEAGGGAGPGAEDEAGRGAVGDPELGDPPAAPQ

[35] = Half life in Han Wistar rat at 4.7 umol/kg, iv; type: ADME, organism-based; conditions: in vivo
[36] = Volume of distribution at steady state in male beagle dog at 0.6 umol/kg, iv; type: ADME, organism-based, Canis lupus familiaris; conditions: in vivo, read-out: Vdss
[37] = Half life in mouse at 4.7 umol/kg, iv; type: ADME, organism-based; conditions: in vivo
[38] = Oral bioavailability in female beagle dog at 1.2 umol/kg; type: ADME, organism-based, Canis lupus familiaris; conditions: in vivo
[39] = Clearance in mouse at 4.7 umol/kg, iv; type: ADME, organism-based; conditions: in vivo
[40] = target: T3, 17-beta-hydroxysteroid dehydrogenase type 3 (Homo sapiens) (UniProt P37058); assay: Inhibition of human 17beta-HSD3 at 10 uM by HPLC assay
T3 sequence (whole entry): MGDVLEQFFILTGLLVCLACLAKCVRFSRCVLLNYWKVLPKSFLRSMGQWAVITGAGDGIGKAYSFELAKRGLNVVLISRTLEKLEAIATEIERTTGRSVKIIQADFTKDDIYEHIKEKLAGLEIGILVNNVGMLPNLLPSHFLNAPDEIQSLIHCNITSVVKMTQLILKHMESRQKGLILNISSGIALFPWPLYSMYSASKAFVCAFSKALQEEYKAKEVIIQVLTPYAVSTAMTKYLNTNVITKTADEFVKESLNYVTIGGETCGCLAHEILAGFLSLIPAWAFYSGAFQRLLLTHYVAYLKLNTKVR

[41] = target: T4, 11-beta-hydroxysteroid dehydrogenase type 2 (Homo sapiens, UniProt P80365); assay: Inhibition of human 11beta-HSD2 by HTRF assay
T4 sequence (P80365 whole entry): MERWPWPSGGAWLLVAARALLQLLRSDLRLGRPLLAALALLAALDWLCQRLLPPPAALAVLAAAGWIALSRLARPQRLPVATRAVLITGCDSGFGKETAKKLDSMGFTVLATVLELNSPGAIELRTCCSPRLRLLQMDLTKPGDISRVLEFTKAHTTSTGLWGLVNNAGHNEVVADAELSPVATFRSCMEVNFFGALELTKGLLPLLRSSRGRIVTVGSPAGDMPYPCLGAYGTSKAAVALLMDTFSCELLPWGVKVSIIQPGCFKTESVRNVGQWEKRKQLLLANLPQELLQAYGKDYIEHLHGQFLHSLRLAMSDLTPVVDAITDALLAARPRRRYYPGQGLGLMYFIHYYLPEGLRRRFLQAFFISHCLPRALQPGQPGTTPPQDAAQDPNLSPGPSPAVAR

[42] = Fraction unbound in human plasma; type: ADME, cell-free
[43] = Lipophilicity, log D at pH 7.4; type: physicochemical; conditions: buffer
[44] = Volume of distribution at steady state in mouse at 4.7 umol/kg, iv; type: ADME, organism-based; conditions: in vivo, read-out: Vdss
[45] = Volume of distribution at steady state in male beagle dog at 1 umol/kg, iv; type: ADME, organism-based, Canis lupus familiaris; conditions: in vivo, read-out: Vdss
[46] = Half life in male beagle dog at 1 umol/kg, iv; type: ADME, organism-based, Canis lupus familiaris; conditions: in vivo
[47] = Clearance in female beagle dog at 1 umol/kg, iv; type: ADME, organism-based, Canis lupus familiaris; conditions: in vivo
[48] = tested on: Rattus norvegicus; assay: Inhibition of 11beta-HSD1 in po dosed Han Wistar rat epididymal adipose tissue assessed as conversion of [3H]cortisone to [3H]cortisol; type: functional, organism-based
[49] = AUC in Han Wistar rat at 11.7 umol/kg, po; type: ADME, organism-based; conditions: plasma
[50] = Oral bioavailability in Han Wistar rat at 11.7 umol/kg; type: ADME, organism-based; conditions: in vivo
[51] = Clearance in male beagle dog at 1 umol/kg, iv; type: ADME, organism-based, Canis lupus familiaris; conditions: in vivo
[52] = Volume of distribution at steady state in female beagle dog at 1 umol/kg, iv; type: ADME, organism-based, Canis lupus familiaris; conditions: in vivo, read-out: Vdss
[53] = Half life in female beagle dog at 1 umol/kg, iv; type: ADME, organism-based, Canis lupus familiaris; conditions: in vivo
[54] = tested on: Rattus norvegicus; assay: as §1; type: ADME, organism-based; conditions: in vivo

T1 sequence (P28845 whole entry): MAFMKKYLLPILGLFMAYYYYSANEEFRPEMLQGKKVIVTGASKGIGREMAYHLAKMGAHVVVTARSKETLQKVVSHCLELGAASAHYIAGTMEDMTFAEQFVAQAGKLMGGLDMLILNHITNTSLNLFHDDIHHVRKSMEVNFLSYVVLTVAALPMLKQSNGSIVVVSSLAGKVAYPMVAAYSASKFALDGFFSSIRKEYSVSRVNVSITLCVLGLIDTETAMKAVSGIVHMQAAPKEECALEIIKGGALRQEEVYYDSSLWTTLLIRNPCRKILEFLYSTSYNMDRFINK
Sequence of 11-beta-hydroxysteroid dehydrogenase 1 (Mus musculus, UniProt P50172) (P50172 whole entry): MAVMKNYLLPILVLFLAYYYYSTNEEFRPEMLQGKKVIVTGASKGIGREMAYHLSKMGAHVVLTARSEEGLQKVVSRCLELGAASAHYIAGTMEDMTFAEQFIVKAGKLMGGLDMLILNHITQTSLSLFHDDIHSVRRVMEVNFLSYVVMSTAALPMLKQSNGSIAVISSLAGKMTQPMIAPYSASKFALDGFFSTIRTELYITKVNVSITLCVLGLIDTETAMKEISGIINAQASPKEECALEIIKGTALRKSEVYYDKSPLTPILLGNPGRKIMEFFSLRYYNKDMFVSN

O=C(N[C@H]1C2CC3CC1C[C@](O)(C3)C2)c1cnc(N[C@H]2CCOC2)nc1C1CCCC1
AUC [1]: 0.19 µM·h | clearance [2]: 17 mL/min/kg | hepatocyte CLint [3]: 6.7 µL/min/1e6 cells | Activity [4]: Active | IC50 [5]: 1.6 nM | hepatocyte CLint [6]: < 2 µL/min/1e6 cells | Activity [7]: Active | Vd [8]: 0.6 L/kg | Activity [9]: inactive | hepatocyte CLint [10]: 9.1 µL/min/1e6 cells | AUC [11]: 0.42 µM·h | AUC [12]: 1.5 µM·h | Activity [13]: Active | Activity [14]: >90% | bioavailability [15]: 34% | half-life [16]: 36 min | bioavailability [17]: 61% | fraction unbound [18]: 0.3 | AUC [19]: 5.6 µM·h | clearance [20]: 9 mL/min/kg | fraction unbound [21]: 0.38 | clearance [22]: 14 mL/min/kg | bioavailability [23]: 61% | fraction unbound [24]: 0.38 | IC50 [25]: 21 nM | hepatocyte CLint [26]: 6.7 µL/min/1e6 cells | hepatocyte CLint [27]: < 2 µL/min/1e6 cells | IC50 [28]: 50 nM | Vd [29]: 1 L/kg | fraction unbound [30]: 0.35 | IC50 [31]: 32 nM | half-life [32]: 36 min | bioavailability [33]: 15% | IC50 [34]: > 100000 nM | half-life [35]: 144 min | Vd [36]: 0.7 L/kg | half-life [37]: 42 min | bioavailability [38]: 30% | clearance [39]: 57 mL/min/kg | inhibition [40]: 7% | IC50 [41]: > 30000 nM | fraction unbound [42]: 0.38 | logD [43]: 2.4 | Vd [44]: 2.4 L/kg

O=C(N[C@H]1C2CC3CC1C[C@](O)(C3)C2)c1cnc(NC2CCOCC2)nc1C1CCC1
AUC [1]: 0.38 µM·h | hepatocyte CLint [3]: < 2 µL/min/1e6 cells | Vd [45]: 1.1 L/kg | IC50 [5]: 14 nM | hepatocyte CLint [6]: < 2 µL/min/1e6 cells | half-life [46]: 48 min | clearance [47]: 29 mL/min/kg | IC50 [48]: 87 nM | hepatocyte CLint [10]: 3.6 µL/min/1e6 cells | AUC [11]: 0.16 µM·h | AUC [12]: 2.7 µM·h | AUC [49]: 10.4 µM·h | bioavailability [15]: 57% | fraction unbound [18]: > 0.5 | clearance [20]: 32 mL/min/kg | fraction unbound [21]: > 0.66 | bioavailability [50]: 100% | bioavailability [23]: 100% | fraction unbound [24]: > 0.66 | IC50 [25]: 28 nM | hepatocyte CLint [26]: < 2 µL/min/1e6 cells | hepatocyte CLint [27]: < 2 µL/min/1e6 cells | IC50 [28]: 30 nM | Vd [29]: 0.9 L/kg | fraction unbound [30]: 0.55 | IC50 [31]: 27 nM | clearance [51]: 19 mL/min/kg | bioavailability [33]: 34% | Vd [52]: 1.6 L/kg | IC50 [34]: > 35000 nM | half-life [35]: 36 min | half-life [37]: 24 min | bioavailability [38]: 23% | clearance [39]: 42 mL/min/kg | half-life [53]: 42 min | inhibition [40]: 4% | IC50 [41]: > 30000 nM | fraction unbound [42]: 0.52 | logD [43]: 2.1 | Vd [44]: 1.1 L/kg

CC(C)(CO)Nc1ncc(C(=O)N[C@H]2C3CC4CC2C[C@](O)(C4)C3)c(OC2CCC2)n1
F [54]: 161% | IC50 [31]: 20 nM | logD [43]: 3.1
